Experimental data reported in ChEMBL document CHEMBL1201862, “PubChem BioAssay data set” (2004).
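Results reflect a 48-hour exposure of cells in 96-well plates to compound at five concentrations. At the GI50, growth is halved.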 Calls of active or inactive are those of the source. Cut-off read from the data, not from the text of the source: active = GI50 up to about 1.1 µM and inactive = higher.

Assays:
Test in all cases: NCI tumour cell line growth inhibition, 48 h
UACC-257 = test system: UACC-257
SK-MEL-28 = test system: SK-MEL-28
EKVX = test system: EKVX
M19-MEL = test system: M19-MEL
M14 = test system: M14
KM12 = test system: KM12
A549 = test system: A549
TK-10 = test system: TK-10
SN12C = test system: SN12C
OVCAR-8 = test system: OVCAR-8
COLO 205 = test system: COLO 205
LOX IMVI = test system: LOX IMVI
HOP-62 = test system: HOP-62
UO-31 = test system: UO-31
CCRF-CEM = test system: CCRF-CEM
HCT-116 = test system: HCT-116
A498 = test system: A498
OVCAR-5 = test system: OVCAR-5
HCC 2998 = test system: HCC 2998
MOLT-4 = test system: MOLT-4
NCI-H226 = test system: NCI-H226
SNB-78 = test system: SNB-78
UACC-62 = test system: UACC-62
SF-539 = test system: SF-539
786-0 = test system: 786-0
U-251 = test system: U-251
SF-295 = test system: SF-295
SK-MEL-5 = test system: SK-MEL-5
HOP-18 = test system: HOP-18
CAKI-1 = test system: CAKI-1
HL-60 = test system: HL-60
RXF 393 = test system: RXF 393
DMS-114 = test system: DMS-114
IGROV-1 = test system: IGROV-1
RXF 631 = test system: RXF 631
SNB-19 = test system: SNB-19
HOP-92 = test system: HOP-92
Malme-3M = test system: Malme-3M
RPMI-8226 = test system: RPMI-8226
HT-29 = test system: HT-29
ACHN = test system: ACHN
K562 = test system: K562
NCI-H460 = test system: NCI-H460
SR = test system: SR
NCI-H23 = test system: NCI-H23
NCI-H522 = test system: NCI-H522
LXFL 529 = test system: LXFL 529
SK-OV-3 = test system: SK-OV-3
SF-268 = test system: SF-268
OVCAR-3 = test system: OVCAR-3
HCT-15 = test system: HCT-15
KM-20L2 = test system: KM-20L2
DLD-1 = test system: DLD-1
XF498 = test system: XF498
SNB-75 = test system: SNB-75

Measured: GI50

Nc1nc(N)c2nc(-c3ccco3)cnc2n1
> 100 µM: HCT-15
inactive: UACC-257 92.7 µM | SK-MEL-28 92 µM | EKVX 18.3 µM | M19-MEL > 100 µM | M14 50 µM | KM12 93.5 µM | A549 34.5 µM | TK-10 88.1 µM | SN12C 85.5 µM | OVCAR-8 > 100 µM | COLO 205 65.6 µM | LOX IMVI 30.9 µM | HOP-62 35.6 µM | UO-31 38.5 µM | CCRF-CEM 43.1 µM | HCT-116 34.4 µM | A498 42.2 µM | OVCAR-5 > 100 µM | HCC 2998 > 100 µM | MOLT-4 44.5 µM | NCI-H226 > 100 µM | SNB-78 > 100 µM | UACC-62 22.4 µM | SF-539 38.2 µM | 786-0 27.1 µM | U-251 34.1 µM | SF-295 60.3 µM | SK-MEL-5 52.5 µM | HOP-18 27.6 µM | CAKI-1 25 µM | HL-60 28.3 µM | RXF 393 26.2 µM | DMS-114 38.8 µM | IGROV-1 43.1 µM | RXF 631 36 µM | SNB-19 > 100 µM | HOP-92 40 µM | Malme-3M 46.5 µM | RPMI-8226 > 100 µM | HT-29 76.7 µM | ACHN 59.4 µM | K562 33.7 µM | NCI-H460 35.3 µM | SR 39.9 µM | NCI-H23 75 µM | NCI-H522 50.2 µM | LXFL 529 64.1 µM | SK-OV-3 76.9 µM | SF-268 > 100 µM | OVCAR-3 56.9 µM | KM-20L2 69.2 µM | DLD-1 > 100 µM | XF498 > 100 µM | SNB-75 28.4 µM
